The first test concerns the target T1, α-7 nicotinic ACh receptor ion channel (Rattus norvegicus, UniProt Q05941).
T1 construct: expressed in transfected cells
As to the kind of experiment: FLIPR Ca2+-sensitive fluorescence assay of α7 nicotinic acetylcholine receptor channel function (agonist activity) in HEK 293 cells. The class given is cell-based. As to conditions: Table 1; Ca2+ flux, HEK-293 cells expressing the channel. As to the method: I) α7 Nicotinic Acetycholine Receptor Binding. Membranes were prepared for binding using HEK293 cells stably expressing the rat α7 nicotinic acetycholine receptor (rat α7 nAChR). Cells were homogenized at 4° C. in hypotonic lysis buffer consisting of 10 mM Tris (pH 7.4), 5 mM EDTA and protease inhibitors and centrifuged at 32000×g for 20 minutes. The pellet was washed once in membrane wash buffer consisting of 50 mM Tris (pH 7.4), 1 mM EDTA and protease inhibitors and centrifuged at 32000×g for 20 minutes. This pellet was then resuspended in assay buffer consisting 50 mM KH2PO4 (pH 7.4 at 25° C.), 1 mM EDTA, 0.005% Triton-X 100 and 0.1% (v/v) Sigma Protease Inhibitor Cocktail. Aliquots were then frozen in dry ice/ethanol and kept at −80° C. until the day of the assay. II) A Ca^2+-Sensitive, Fluorescence-Based Assay α-7 for Nicotinic Acetylcholine Receptor Channel Function in Mammalian Cells (“FLIPR”). Summary: Lead compounds are evaluated for agonist activity at α-7, α3β4, α4αβ2, and α1β1δ1ε sub-types of nicotinic ACh receptor ion channels expressed in mammalian HEK 293 cells. Agonist potency and efficacy values are determined from kinetic fluorescence Ca^2+ influx measurements made using a 384 well FLIPR (Fluorescence Image Plate Reader). The utility of fluorescent indicators for measuring changes in intracellular divalent cation concentrations, particularly Ca^2+, for drug discovery endeavors is well documented (Rudiger, R., et al., Nature Reviews, 2003, 4:579-586; Gonzalez J. E., et al., Receptors and Channels, 2002, 8:283-295). In this assay, channel expressing HEK cell lines seeded in 384 well assay plates are loaded with a membrane permeant fluorescent Ca^2+ indicator dye, whose 510 nm green emission signal increases in response to elevation of intracellular Ca^2+ concentration. The basal fluorescence from the cells is monitored in real time, followed by the acute addition of test compounds. If the compound is an agonist at any of the non-selective cation channels, the latter open and allow the movement of extracellular Ca^2+ ions into the cell cytoplasm, where they bind to the Ca^2+ indicator dye, and produce an increase in fluorescence output signal, which is detected by a cooled CCD imaging camera.
Materials and Methods: Reagents: The acetomethoxy (AM) ester of the Ca^2+ indicator dye Fluo-4 was obtained from InVitrogen, (Carlsbad, Calif.). Acetylcholine and all buffer constituents were purchased from Sigma Chemical Company, St. Louis, Mo. G418 and Minimal Essential Medium were purchased from InVitrogen Life Technologies, Carlsbad, Calif. Fetal bovine serum was purchased from (InVitrogen, Carlsbad, Calif.).
Cell Culture: HEK-293 cells were grown in Minimal Essential Medium containing 10% (v/v) fetal bovine serum at 37° C. in a 5% CO2 incubator. HEK-293 cells stably expressing the ion channels were grown in the same medium with the addition of 500 μg/ml G418.
Ca^2+ flux assays of Ca^2+ channels expressed in HEK-293 cells: HEK-293 cells expressing the ion channels of interest were plated in 384 well, black-walled, clear-bottomed, poly-D-lysine coated plates at a density of ˜20,000 cells/well in 20 μl of Minimal Essential Medium containing 10% (v/v) fetal bovine serum and incubated for 2 days at 29° C. in a 5% CO2 incubator. Prior to assay, cells were loaded with the Fluo-4 AM ester. Cell loading was accomplished by removing the culture medium and replacing it with 30 μl/well of the AM ester of the dye (5 μM) mixed with Hanks Balanced Salt Solution (#14175-095) containing 20 mM HEPES, 2.5 mM probenecid, 0.5 mM CaCl2, 1 mM MgCl2 and 10 μM atropine. Dye loading was allowed to proceed for 90 minutes at room temperature at which time the dye loading solution was removed and replaced with 40 μl/well of Hanks buffer. Cells loaded with dye were loaded onto a FLIPR384 (Molecular Devices, Sunnyvale, Calif.). Fluo-4 dye was excited using the 488 nm line of an argon laser. Emission was filtered using a 540+/−30 nm bandpass filter. […]
Background: Calcium assays in cells follow changes in intracellular calcium, usually with a dye or a luminescent sensor.
T1 sequence (Q05941 23-502): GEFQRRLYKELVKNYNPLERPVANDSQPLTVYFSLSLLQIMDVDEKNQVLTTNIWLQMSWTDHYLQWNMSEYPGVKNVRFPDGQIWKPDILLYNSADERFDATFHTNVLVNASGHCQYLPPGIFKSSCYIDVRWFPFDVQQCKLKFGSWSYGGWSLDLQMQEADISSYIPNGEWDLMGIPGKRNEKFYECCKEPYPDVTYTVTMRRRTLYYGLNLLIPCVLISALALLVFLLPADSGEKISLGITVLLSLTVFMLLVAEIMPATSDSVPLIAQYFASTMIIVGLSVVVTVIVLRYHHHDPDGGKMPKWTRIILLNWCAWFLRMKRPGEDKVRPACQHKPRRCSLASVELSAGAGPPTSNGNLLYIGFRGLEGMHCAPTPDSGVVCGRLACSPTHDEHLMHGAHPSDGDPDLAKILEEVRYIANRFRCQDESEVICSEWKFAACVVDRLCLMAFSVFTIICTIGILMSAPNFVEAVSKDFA
A word on the EC50: it is the concentration giving half of the maximal effect. A higher EC50 goes with a less potent agent. `O=C(c1cc2ccccc2o1)N1C2CC3CCN(C2)CC31` (stereo not shown) [Example 5, Benzofuran-2-yl(hexahydro-2,6-methanopyrrolo[2,3-c]pyridin-1(2H)-yl)methanone]: the EC50 was above 100000 nM. On the same count and under the same terms, the result for `Cn1nc(C(=O)N2C3CC4CCN(C3)CC42)c2ccccc21` (stereo not shown) [Example 8, (Hexahydro-2,6-methanopyrrolo[2,3-c]pyridin-1(2H)-yl)(1-methyl-1H-indazol-3-yl)methanone] reads above 100000 nM; that for `O=C(c1n[nH]c2cc(Cl)ccc12)N1C2CC3CCN(C2)CC31` (stereo not shown) [Example 7, (6-chloro-1H-indazol-3-yl)(hexahydro-2,6-methanopyrrolo[2,3-c]pyridin-1(2H)-yl)methanone], 57 nM. In turn, `COc1ccc2[nH]nc(C(=O)N3C4CC5CCN(C4)CC53)c2c1` (stereo not shown) [Example 10, (5-methoxy-1H-indazol-3-yl)(hexahydro-2,6-methanopyrrolo[2,3-c]pyridin-1(2H)-yl)methanone] displayed an EC50 above 100000 nM.

Turning to `O=C(c1cc2cccc(Cl)c2s1)N1C2CC3CCN(C2)CC31` (stereo not shown) [Example 4, (7-chlorobenzo[b]thiophen-2-yl)(hexahydro-2,6-methanopyrrolo[2,3-c]pyridin-1(2H)-yl)methanone], the EC50 is above 100000 nM. In turn, `Cn1cc(C(=O)N2C3CC4CCN(C3)CC42)c2ccccc21` (stereo not shown) [Example 14, (Hexahydro-2,6-methanopyrrolo[2,3-c]pyridin-1(2H)-yl)(1-methyl-1H-indol-3-yl)methanone] showed an EC50 above 100000 nM. `O=C(c1n[nH]c2ccc(Br)cc12)N1C2CC3CCN(C2)CC31` (stereo not shown) [Example 3, (5-bromo-1H-indazol-3-yl)(hexahydro-2,6-methanopyrrolo[2,3-c]pyridin-1(2H)-yl)methanone] displayed an EC50 of 700 nM.

`O=C(c1cc2ccccc2s1)N1C2CC3CCN(C2)CC31` (stereo not shown) [Example 6, Benzo[b]thiophen-2-yl(hexahydro-2,6-methanopyrrolo[2,3-c]pyridin-1(2H)-yl)methanone] gave an EC50 of 51000 nM. Still for that read-out and setting: the result for `O=C(c1nsc2ccccc12)N1C2CC3CCN(C2)CC31` (stereo not shown) [Example 11, Benzo[d]isothiazol-3-yl(hexahydro-2,6-methanopyrrolo[2,3-c]pyridin-1(2H)-yl)methanone] reads 7100 nM. The compound `O=C(c1cc2c(Cl)cccc2s1)N1C2CC3CCN(C2)CC31` (stereo not shown) [Example 12, (4-chlorobenzo[b]thiophen-2-yl)(hexahydro-2,6-methanopyrrolo[2,3-c]pyridin-1(2H)-yl)methanone] gave an EC50 above 100000 nM. As for `O=C(c1n[nH]c2ccc(Cl)cc12)N1C2CC3CCN(C2)CC31` (stereo not shown) [Example 2, (5-chloro-1H-indazol-3-yl)(hexahydro-2,6-methanopyrrolo[2,3-c]pyridin-1(2H)-yl)methanone], the midpoint of the response, the EC50, lay at 590 nM.

The test is the same for the next values; noted with them: Table 2; Ca2+ flux, HEK-293 cells expressing the channel.
The compound `Cc1ccc2c(C(=O)N3[C@H]4C[C@@H]5CC[N@](C4)C[C@@H]53)n[nH]c2c1` [Example 23, (6-methyl-1H-indazol-3-yl)((2S,3aS,6R,7aR)-hexahydro-2,6-methanopyrrolo[2,3-c]pyridin-1(2H)-yl)methanone] yielded an EC50 of 39 nM. Same read-out and setting: the value for `O=C(c1n[nH]c2ccccc12)N1[C@H]2C[C@@H]3CC[N@](C2)C[C@@H]31` [Example 18, ((2S,3aS,6R,7aR)-hexahydro-2,6-methanopyrrolo[2,3-c]pyridin-1(2H)-yl)(1H-indazol-3-yl)methanone] was 55 nM; that for `O=C(c1n[nH]c2cc(Cl)ccc12)N1[C@H]2C[C@@H]3CC[N@](C2)C[C@@H]31` [Example 17, (6-chloro-1H-indazol-3-yl)((2S,3aS,6R,7aR)-hexahydro-2,6-methanopyrrolo[2,3-c]pyridin-1(2H)-yl)methanone] was 30 nM.

Consider `O=C(c1n[nH]c2c(Cl)cccc12)N1[C@H]2C[C@@H]3CC[N@](C2)C[C@@H]31` [Example 22, (7-Chloro-1H-indazol-3-yl)((2S,3aS,6R,7aR)-hexahydro-2,6-methanopyrrolo[2,3-c]pyridin-1(2H)-yl)methanone], for which the response was half-maximal at 3600 nM (EC50). The compound `O=C(c1n[nH]c2ncccc12)N1[C@H]2C[C@@H]3CC[N@](C2)C[C@@H]31` [Example 24, ((2S,3aS,6R,7aR)-hexahydro-2,6-methanopyrrolo[2,3-c]pyridin-1(2H)-yl)(1H-pyrazolo[3,4-b]pyridin-3-yl)methanone] registered an EC50 of 1300 nM. `O=C(c1cc(C2CC2)[nH]n1)N1[C@H]2C[C@@H]3CC[N@](C2)C[C@@H]31` [Example 20, ((2S,3aS,6R,7aR)-hexahydro-2,6-methanopyrrolo[2,3-c]pyridin-1(2H)-yl)(5-cyclopropyl-1H-pyrazol-3-yl)methanone] registered an EC50 of 26000 nM.

The same test, now with this note: Table 3; Ca2+ flux, HEK-293 cells expressing the channel.
`O=C(c1n[nH]c2ccccc12)N1[C@@H]2C[C@H]3CC[N@@](C2)C[C@H]31` [Example 33, ((2R,3aR,6S,7aS)-hexahydro-2,6-methanopyrrolo[2,3-c]pyridin-1(2H)-yl)(1H-indazol-3-yl)methanone] had an EC50 of 150 nM. Take `O=C(c1cc(C2CC2)[nH]n1)N1[C@@H]2C[C@H]3CC[N@@](C2)C[C@H]31` [Example 27, ((2R,3aR,6S,7aS)-hexahydro-2,6-methanopyrrolo[2,3-c]pyridin-1(2H)-yl)(5-cyclopropyl-1H-pyrazol-3-yl)methanone]: the EC50 was above 100000 nM. Compound `Cc1ccc2c(C(=O)N3[C@@H]4C[C@H]5CC[N@@](C4)C[C@H]53)n[nH]c2c1` [Example 30, (6-methyl-1H-indazol-3-yl)((2R,3aR,6S,7aS)-hexahydro-2,6-methanopyrrolo[2,3-c]pyridin-1(2H)-yl)methanone] registered an EC50 of 190 nM. Still for that read-out and setting: the result for `O=C(c1n[nH]c2cc(F)ccc12)N1[C@@H]2C[C@H]3CC[N@@](C2)C[C@H]31` [Example 26, (6-fluoro-1H-indazol-3-yl)((2R,3aR,6S,7aS)-hexahydro-2,6-methanopyrrolo[2,3-c]pyridin-1(2H)-yl)methanone] reads 430 nM.

`O=C(c1n[nH]c2c(Cl)cccc12)N1[C@@H]2C[C@H]3CC[N@@](C2)C[C@H]31` [Example 28, (7-chloro-1H-indazol-3-yl)((2R,3aR,6S,7aS)-hexahydro-2,6-methanopyrrolo[2,3-c]pyridin-1(2H)-yl)methanone]: the response was half-maximal at 36000 nM (EC50). Regarding `O=C(c1n[nH]c2ncccc12)N1[C@@H]2C[C@H]3CC[N@@](C2)C[C@H]31` [Example 31, ((2R,3aR,6S,7aS)-hexahydro-2,6-methanopyrrolo[2,3-c]pyridin-1(2H)-yl)(1H-pyrazolo[3,4-b]pyridin-3-yl)methanone], the EC50 was determined as 9200 nM.

In the case of `O=C(c1cc(-c2ccccc2)[nH]n1)N1[C@@H]2C[C@H]3CC[N@@](C2)C[C@H]31` [Example 32, ((2R,3aR,6S,7aS)-hexahydro-2,6-methanopyrrolo[2,3-c]pyridin-1(2H)-yl)(5-phenyl-1H-pyrazol-3-yl)methanone], the EC50 is above 100000 nM. Same read-out and setting: the value for `O=C(c1n[nH]c2cc(Cl)ccc12)N1[C@@H]2C[C@H]3CC[N@@](C2)C[C@H]31` [Example 16, (6-chloro-1H-indazol-3-yl)((2R,3aR,6S,7aS)-hexahydro-2,6-methanopyrrolo[2,3-c]pyridin-1(2H)-yl)methanone] was 86 nM.

(Values after US9796713B2, “Tricyclic compounds as alpha-7 nicotinic acetylcholine receptor ligands” (BRISTOL-MYERS SQUIBB COMPANY, priority 2014, dated 2017).)
